From patent publication US9145472B2, “Charge reversible polymers” (Wyoming Research Products Center, priority 2006, dated 2015)

Assays:
[1] = pH-dependent hydrolysis of model amides monitored by 1H-NMR; assay type: physicochemical
Method: Model compound synthesis and hydrolytic kinetics measurement (Scheme 4—FIG. 4): Briefly, N,N-diethylamine (415 μL, 4 mmol) and 1,2-cis-cyclohexanedicarboxylic anhydride (617 mg, 4 mmol) were dissolved in 10 mL dichloride methane. The reaction was kept at room temperature for 2 h with stirring. The solvent was then removed by rotary evaporation to obtain the raw product. The raw product was purified by recrystallizing from benzene to get 2-[(diethylamino)carbonyl]cyclohexanecarboxylic acid. 1H NMR (400 MHz, CDCl3): δ (ppm): 3.60-3.22 (m), 2.77 (m), 2.51-2.45 (m), 1.87-1.66 (m), 1.58-1.46 (m), 1.49-1.39 (m), 1.28 (q), 1.17 (t). Similarly, 2-[(isopropylamino)carbonyl]cyclohexanecarboxylic acid was synthesized. 1H NMR (400 MHz, CDCl3): δ (ppm): 3.83 (q), 2.73 (q), 2.64 (q), 1.87 (m), 1.79 (m), 1.64 (m), 1.45 (m), 1.33 (m), 1.01 (d).
The hydrolysis of the model compounds was monitored by 1H-NMR. Briefly, 2-[(isopropylamino)carbonyl]cyclohexanecarboxylic acid (10 mg) was dissolved in 2 mL D2O. Sodium carbonate was used to adjust the solution pH to 5.0, 6.0 or 7.4 at 37° C. At predesigned time intervals, 1HNMR spectra of the solution were measured on a Bruker Avance DRX-400 spectrometer. The hydrolysis was monitored by measuring the integrations of the peaks at 3.77-3.9 ppm (CH in the amide of propan-2-amine) and the 3.3-3.5 ppm (CH in the propan-2-amine).
The hydrolysis of model amides of primary and secondary amines made from cis-1,2-cyclohexanedicarboxylic anhydride was tested at different pH values.

nuclear DNA = details: cited from earlier work

Question: What does the source list for `CCN(CC)C(=O)C1CCCCC1C(=O)O` (stereo not shown) [amide of the secondary amine, 2-[(diethylamino)carbonyl]cyclohexanecarboxylic acid]?
Answer: hydrolysis of the amide ([1]; pH 5, 37° C.): almost instantly hydrolyzed; hydrolysis of the amide ([1]; pH 6, 37° C.): slightly slower; extent of amide hydrolysis ([1]; pH 7.4, after 60 h): 50%

Question: With `N.N.[Cl][Pt][Cl]` [cisplatin] as the molecule, how does the “molecules that enter the cell that actually bind the nuclear DNA” value (nuclear DNA) read?
Answer: The value was “less than 1%”.

Question: What does the source list for `CC(C)NC(=O)C1CCCCC1C(=O)O` (stereo not shown) [amide of the primary amine, 2-[(isopropylamino)carbonyl]cyclohexanecarboxylic acid]?
Answer: hydrolysis of the amide ([1]; pH 5, 37° C.): hydrolyzed more slowly; hydrolysis of the amide ([1]; pH 6, 37° C.): hydrolyzed more slowly; hydrolysis of the amide ([1]; pH 7.4): did not hydrolyze
